Series [1] can be described thus: Pharmacokinetics of GDC-9545 and palbociclib in patients. The series is classed as in vivo, human. From the text: Pharmacokinetics. […] Palbociclib PK was not altered when given with GDC-9545 and was consistent with reported values.
Series [2] deals with ER pathway signature. Kind of series: Pharmacodynamics: ER pathway signature score in paired biopsies. The series is classed as in vivo, human. Conditions: 8/12; pre- and on-treatment biopsies (n=12); cohort not stated. From the text: An “ER pathway activity score” as used herein, refers to a numerical value that reflects mathematical difference between the E2-induced score and the E2-repressed score.
Breast cancer is a heterogeneous disease with many distinct subtypes as defined by molecular signatures and a diverse array of mutational profiles. Patients described herein can be tested for ER+ HER2− laBC or mBC using diagnostic methods, or kits to inform treating or predict of responsiveness of a pateint to the combination therapies described herein. In one embodiment, a patient can be tested by determining an ER pathway activity score such as those described in US Patent Application Publication 20200082944. In some embodiments, a patient sample is taken and tested to determine an ER pathway activity score. The score can be calculated using a 41-gene signature by subtracting an E2-repressed score (as determined from the average z-scored expression of genes comprising BAMBI, BCAS1, CCNG2, DDIT4, EGLN3, FAM171B, GRM4, IL1R1, LIPH, NBEA, PNPLA7, PSCA, SEMA3E, SSPO, STON1, TGFB3, TP531NP1, and TP531NP2) from an E2-induced score (as determined from the average z-scored expression of genes set forth in AGR3, AMZ1, AREG, C5AR2, CELSR2, CT62, FKBP4, FMN1, GREB1, IGFBP4, NOSIAP, NXPH3, OLFM1, PGR, PPMIJ, […], RBM24, RERG, RET, SGK3, SLC9A3R1, TFF1, and ZNF703).

In series [3] the test system is patients with ER+ (HER2−) metastatic breast cancer. Conditions: human, in vivo. From the text: A graded adverse event refers to the severity grading scale as established for by NCI CTCAE. In one embodiment, the adverse event is graded in accordance with the table below.
No prior treatment with CDK4/6i was allowed in patients receiving palbociclib.

The test system is the same in series [4]. Kind of series: Reason for discontinuation of study treatment. The series is classed as in vivo. The conditions noted are these: Cohort A n = 40, Cohort B n = 48.
In series [5] the test system is PR. Kind of series: Pharmacodynamics: PR protein level in paired pre- and on-treatment biopsies. Conditions: 7/8, cohort not stated. The series is classed as in vivo, human.
Series [6] deals with T1, ER (Homo sapiens, UniProt P03372).
T1 construct: from tissue; host or cells: patients' tumour biopsies (pre- and on-treatment)
T1 sequence (P03372 1-595): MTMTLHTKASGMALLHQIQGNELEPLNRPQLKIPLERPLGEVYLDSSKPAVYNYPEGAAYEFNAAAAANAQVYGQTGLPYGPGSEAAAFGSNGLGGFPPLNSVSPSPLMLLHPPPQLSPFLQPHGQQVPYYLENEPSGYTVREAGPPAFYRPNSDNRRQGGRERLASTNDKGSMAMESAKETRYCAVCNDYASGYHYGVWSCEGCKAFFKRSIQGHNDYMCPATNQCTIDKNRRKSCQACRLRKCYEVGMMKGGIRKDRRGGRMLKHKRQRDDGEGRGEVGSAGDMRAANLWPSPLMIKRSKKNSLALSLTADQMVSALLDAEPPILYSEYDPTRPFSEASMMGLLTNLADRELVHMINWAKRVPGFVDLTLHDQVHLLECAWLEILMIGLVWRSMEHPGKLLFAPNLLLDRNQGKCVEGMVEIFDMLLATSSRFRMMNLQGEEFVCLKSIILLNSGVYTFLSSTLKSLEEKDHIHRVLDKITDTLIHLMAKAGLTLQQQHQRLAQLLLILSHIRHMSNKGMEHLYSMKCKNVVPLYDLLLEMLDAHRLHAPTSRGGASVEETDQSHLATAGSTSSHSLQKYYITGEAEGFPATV
The series is described as follows: Pharmacodynamics: ER protein level in paired pre- and on-treatment biopsies. The series is classed as in vivo. The conditions noted are these: 10/12; pre- and on-treatment biopsies (n=12); cohort not stated.

Series [7] deals with ESR1 mutant allele (ctDNA). The series is described as follows: ctDNA ESR1 mutant allele frequency, change from baseline. The series is classed as in vivo, human. The conditions noted are these: all patients in both cohorts (n=26).
The subject of series [8] is ER+ (HER2−) metastatic breast cancer. Kind of series: Clinical activity (clinical benefit, response, PFS; RECIST v1.1). The series is classed as in vivo, human. From the text:
“Objective response rate” or “ORR” refers the percentage of patients with a confirmed complete response or partial response on two consecutive occasions ≥4 weeks apart, as determined by the investigator according to RECIST v1.1
“Progression free survival” or “PFS” refers to the time from enrollment to the date of the first recorded occurrence of disease progression, as determined by the investigator using RECIST v1.1 or death from any cause, whichever occurs first.
“Clinical benefit rate” or “CBR” refers to the percentage of patients with stable disease for at least 24 weeks or with confirmed complete or partial response, as determined by the investigator according to RECIST v1.1.
Clinical Activity. In Cohort A 22/40 patients (55%) derived clinical benefit defined as patients with CR, PR or first occurrence of progressive disease observed on or after 24 weeks.

Where [9] appears, read: Cohort A n = 40, Cohort B n = 48.
[10] abbreviates: of 31 (Cohort A) and 45 (Cohort B) patients with measurable disease.

Molecules are shown by their SMILES.

In the case of `C[C@@H]1Cc2c([nH]c3ccccc23)[C@@H](c2c(F)cc(NC3CN(CCCF)C3)cc2F)N1CC(F)(F)CO` [GDC-9545, 3-((1R,3R)-1-(2,6-difluoro-4-((1-(3-fluoropropyl)azetidin-3-yl)amino)phenyl)-3-methyl-1,3,4,9-tetrahydro-2H-pyrido[3,4-b]indol-2-yl)-2,2-difluoropropan-1-ol], the “Exposure of GDC-9545 in combination with palbociclib versus single agent GDC-9545” value in series [1] is recorded as “generally comparable”. In series [2], the “Reduced ER pathway signature scores, share of evaluable paired biopsies” value worked out at 67%. Further, in series [3], the “Bradycardia AEs reported, patients” value was found to be 8%; the “Grade 3 AEs related to GDC-9545 (others Grade 1-2)” value was “three Grade 3 events of fatigue, transaminase increased, and diarrhea”; the “Heart rate (HR) changes upon completion of treatment” value is given as “returned to baseline”; the “Patients who discontinued study treatment due to AEs” value is given as “No patients”. Also, in series [3], the “Patients with an AE related to GDC-9545” value is listed as 58%; the “Severity of bradycardia AEs” value is “all were Grade 1 and asymptomatic”; the “Treatment-emergent AEs (TEAE) reported, patients” value came to 78%. Further, in series [4], the “Reason for discontinuation: Death” value was 1 (3%) patients (%) and the “Reason for discontinuation: Disease progression” value is given as 22 (55%) patients (%). Also, the “Reduced PR protein levels, share of evaluable paired biopsies” value in series [5] turned out to be 88%. Besides, in series [6], the “Reduced ER protein levels, share of evaluable paired biopsies” value came to 83%. Further, the “ctDNA ESR1 mutant allele frequency” value in series [7] was “Decreases from baseline”. Also, in series [8] (Cohort A 2/7, Cohort B 2/3), the “Clinical benefit in patients with prior fulvestrant treatment” value worked out at 29%. Moreover, in series [8] (Cohort A 8/13, Cohort B 11/11), the “Clinical benefit in patients with detectable ESR1 mutations at enrollment” value is recorded as 62%. Moreover, in series [8] (Cohort A 22/40, Cohort B 35/48), the “Patients who derived clinical benefit (CR, PR or first progressive disease on or after 24 weeks)” value came to 55%. Also, in series [8] (setting [9]), the “Median PFS” value was determined as 7.8 months and the “Patients with an event of disease progression or death for PFS calculations” value was 55%. In series [8] (Table 3), this compound had a CBR of 55% and an ORR of 13%. In series [8] (number of patients as printed), this compound had a Clinical benefit of 40. For the same compound, in series [8] (setting [10]), the “Patients with confirmed response” value stood at 4 and the “Patients with unconfirmed response” value is listed as 4. Also, in series [8] (patients with measurable disease at baseline, Cohort A 4/31, Cohort B 14/45), the Partial response came out at 13%.

`CC(=O)c1c(C)c2cnc(Nc3ccc(N4CCNCC4)cn3)nc2n(C2CCCC2)c1=O` [Palbociclib, 6-acetyl-8-cyclopentyl-5-methyl-2-{[5-(piperazin-1-yl)pyridin-2-yl]amino}pyrido[2,3-d]pyrimidin-7(8H)-one, reference compound]: the “Palbociclib PK when given with GDC-9545” value in series [1] (consistent with reported values) is on record as “not altered”.

Values taken from patent US11918561B2, “Treatment of breast cancer using combination therapies comprising GDC-9545 and a CDK4/6 inhibitor” (Genentech, Inc., priority 2020, dated 2024).
